Here are results for 16 molecules from ChEMBL document CHEMBL3991601, “The target landscape of clinical kinase drugs” (Science, 2017).

Assay [1] concerns the target RAC-gamma serine/threonine-protein kinase (Homo sapiens, UniProt Q9Y243).
Assay [2] has as its target T1, Ephrin type-B receptor 3 (Homo sapiens, UniProt P54753).
T1 sequence (P54753 whole entry): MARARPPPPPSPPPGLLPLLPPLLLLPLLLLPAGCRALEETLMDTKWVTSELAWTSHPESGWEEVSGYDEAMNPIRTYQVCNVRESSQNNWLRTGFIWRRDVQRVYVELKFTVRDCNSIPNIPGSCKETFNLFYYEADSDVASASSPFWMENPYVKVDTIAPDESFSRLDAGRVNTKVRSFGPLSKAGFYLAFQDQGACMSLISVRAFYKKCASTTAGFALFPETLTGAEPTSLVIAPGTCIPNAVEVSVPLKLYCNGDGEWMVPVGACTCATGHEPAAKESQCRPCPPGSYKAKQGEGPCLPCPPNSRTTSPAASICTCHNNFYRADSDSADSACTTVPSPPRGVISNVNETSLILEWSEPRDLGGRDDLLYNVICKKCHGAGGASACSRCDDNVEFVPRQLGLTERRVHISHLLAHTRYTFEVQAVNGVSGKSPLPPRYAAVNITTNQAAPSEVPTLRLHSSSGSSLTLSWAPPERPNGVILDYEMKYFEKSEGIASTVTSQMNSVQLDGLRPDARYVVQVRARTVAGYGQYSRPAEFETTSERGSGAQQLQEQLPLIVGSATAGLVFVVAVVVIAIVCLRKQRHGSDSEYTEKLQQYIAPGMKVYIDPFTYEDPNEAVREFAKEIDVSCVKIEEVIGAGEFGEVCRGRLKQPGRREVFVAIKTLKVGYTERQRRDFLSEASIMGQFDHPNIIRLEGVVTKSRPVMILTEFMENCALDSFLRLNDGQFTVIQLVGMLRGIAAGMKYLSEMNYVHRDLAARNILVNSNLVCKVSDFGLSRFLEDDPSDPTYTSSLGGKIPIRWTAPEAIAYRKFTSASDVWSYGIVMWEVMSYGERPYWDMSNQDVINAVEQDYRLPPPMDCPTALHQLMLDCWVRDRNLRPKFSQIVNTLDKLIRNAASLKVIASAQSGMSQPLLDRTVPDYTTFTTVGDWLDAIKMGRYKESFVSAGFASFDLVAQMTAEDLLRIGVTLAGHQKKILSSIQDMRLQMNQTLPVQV

Assay [3] has as its target T2, Dual specificity mitogen-activated protein kinase kinase 3 (Homo sapiens, UniProt P46734).
T2 sequence (P46734 whole entry): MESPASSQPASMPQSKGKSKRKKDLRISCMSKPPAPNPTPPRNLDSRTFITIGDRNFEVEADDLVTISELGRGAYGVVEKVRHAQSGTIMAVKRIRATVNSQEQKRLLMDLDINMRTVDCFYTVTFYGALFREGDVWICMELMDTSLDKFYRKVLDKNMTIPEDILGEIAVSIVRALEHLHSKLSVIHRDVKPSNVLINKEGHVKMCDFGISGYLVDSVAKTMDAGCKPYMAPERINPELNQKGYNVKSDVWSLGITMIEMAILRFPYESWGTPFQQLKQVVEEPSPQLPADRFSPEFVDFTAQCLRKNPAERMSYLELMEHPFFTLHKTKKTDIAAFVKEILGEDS

Assay [4] has as its target T3, Bifunctional phosphoribosylaminoimidazole carboxylase/phosphoribosylaminoimidazole succinocarboxamide synthetase (Homo sapiens, UniProt P22234).
T3 sequence (P22234 whole entry): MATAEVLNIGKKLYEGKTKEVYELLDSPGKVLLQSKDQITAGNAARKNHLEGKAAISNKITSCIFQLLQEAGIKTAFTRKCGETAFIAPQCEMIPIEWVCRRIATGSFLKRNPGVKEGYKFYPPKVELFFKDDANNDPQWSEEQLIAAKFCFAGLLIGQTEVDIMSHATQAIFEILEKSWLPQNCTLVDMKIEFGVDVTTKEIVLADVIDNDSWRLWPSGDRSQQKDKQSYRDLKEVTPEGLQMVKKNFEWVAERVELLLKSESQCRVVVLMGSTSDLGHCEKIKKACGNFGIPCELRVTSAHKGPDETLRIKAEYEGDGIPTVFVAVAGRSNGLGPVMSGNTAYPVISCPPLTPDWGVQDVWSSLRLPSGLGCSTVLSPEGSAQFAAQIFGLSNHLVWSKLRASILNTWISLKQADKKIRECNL

The target of assay [5] is T4, Phosphatidylinositol 5-phosphate 4-kinase type-2 gamma (Homo sapiens, UniProt Q8TBX8).
T4 sequence (Q8TBX8 whole entry): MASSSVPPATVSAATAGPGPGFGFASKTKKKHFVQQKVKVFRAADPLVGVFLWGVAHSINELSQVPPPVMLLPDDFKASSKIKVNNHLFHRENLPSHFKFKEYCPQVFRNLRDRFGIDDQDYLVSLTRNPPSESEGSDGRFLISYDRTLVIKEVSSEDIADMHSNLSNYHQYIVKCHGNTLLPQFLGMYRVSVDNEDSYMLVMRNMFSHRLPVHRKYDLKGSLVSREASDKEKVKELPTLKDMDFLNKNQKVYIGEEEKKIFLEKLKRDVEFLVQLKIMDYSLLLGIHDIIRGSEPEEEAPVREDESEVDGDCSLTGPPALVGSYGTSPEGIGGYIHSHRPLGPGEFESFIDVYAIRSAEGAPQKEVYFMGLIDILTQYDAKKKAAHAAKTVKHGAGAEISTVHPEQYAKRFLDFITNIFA

Assay [6] concerns the target T5, Ras-related protein Rab-10 (Homo sapiens, UniProt P61026).
T5 sequence (P61026 whole entry): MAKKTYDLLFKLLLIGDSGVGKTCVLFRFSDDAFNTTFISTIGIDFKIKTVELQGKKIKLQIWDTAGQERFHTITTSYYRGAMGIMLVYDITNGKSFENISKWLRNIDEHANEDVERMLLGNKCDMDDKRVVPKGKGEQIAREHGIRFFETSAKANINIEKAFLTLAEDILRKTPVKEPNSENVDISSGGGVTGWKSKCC

The target of assay [7] is Ribosomal protein S6 kinase beta-1 (Homo sapiens, UniProt P23443).
Ribosomal protein S6 kinase beta-1, sequence (P23443 whole entry): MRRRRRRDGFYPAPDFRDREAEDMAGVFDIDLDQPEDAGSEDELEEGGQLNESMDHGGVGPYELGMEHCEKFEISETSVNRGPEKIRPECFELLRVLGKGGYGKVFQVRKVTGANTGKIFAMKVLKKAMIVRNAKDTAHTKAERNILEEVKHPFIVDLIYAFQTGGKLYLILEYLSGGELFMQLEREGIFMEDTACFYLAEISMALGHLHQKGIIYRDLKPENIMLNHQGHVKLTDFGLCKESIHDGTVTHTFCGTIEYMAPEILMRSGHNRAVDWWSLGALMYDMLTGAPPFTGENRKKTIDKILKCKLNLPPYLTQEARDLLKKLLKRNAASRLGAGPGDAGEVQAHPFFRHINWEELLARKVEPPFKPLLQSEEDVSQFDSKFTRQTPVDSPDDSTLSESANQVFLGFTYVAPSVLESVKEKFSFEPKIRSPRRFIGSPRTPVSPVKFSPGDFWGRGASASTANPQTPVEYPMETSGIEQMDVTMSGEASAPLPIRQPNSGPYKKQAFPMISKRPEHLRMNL
Assay [8] addresses Structural maintenance of chromosomes protein 2 (Homo sapiens, UniProt O95347).

pKd: −log10 of the molar value. Calls of active or inactive are those of the source. Some results are limits rather than exact numbers.
Further: in the data inactive means no Kd found up to 30 µM.

RAC-gamma serine/threonine-protein kinase, sequence (Q9Y243 whole entry): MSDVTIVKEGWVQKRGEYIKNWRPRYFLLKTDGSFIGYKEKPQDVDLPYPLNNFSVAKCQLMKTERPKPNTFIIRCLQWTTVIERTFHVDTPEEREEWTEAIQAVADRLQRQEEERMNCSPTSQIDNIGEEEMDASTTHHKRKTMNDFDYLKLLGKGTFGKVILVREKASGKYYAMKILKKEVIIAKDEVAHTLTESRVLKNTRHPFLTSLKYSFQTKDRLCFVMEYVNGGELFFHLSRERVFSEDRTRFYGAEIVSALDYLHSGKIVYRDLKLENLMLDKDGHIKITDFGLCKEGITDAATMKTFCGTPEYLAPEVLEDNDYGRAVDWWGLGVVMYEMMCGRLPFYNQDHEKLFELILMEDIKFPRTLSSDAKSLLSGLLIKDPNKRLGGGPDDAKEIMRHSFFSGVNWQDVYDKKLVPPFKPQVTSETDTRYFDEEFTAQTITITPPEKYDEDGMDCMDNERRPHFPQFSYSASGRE
Structural maintenance of chromosomes protein 2, sequence (O95347 whole entry): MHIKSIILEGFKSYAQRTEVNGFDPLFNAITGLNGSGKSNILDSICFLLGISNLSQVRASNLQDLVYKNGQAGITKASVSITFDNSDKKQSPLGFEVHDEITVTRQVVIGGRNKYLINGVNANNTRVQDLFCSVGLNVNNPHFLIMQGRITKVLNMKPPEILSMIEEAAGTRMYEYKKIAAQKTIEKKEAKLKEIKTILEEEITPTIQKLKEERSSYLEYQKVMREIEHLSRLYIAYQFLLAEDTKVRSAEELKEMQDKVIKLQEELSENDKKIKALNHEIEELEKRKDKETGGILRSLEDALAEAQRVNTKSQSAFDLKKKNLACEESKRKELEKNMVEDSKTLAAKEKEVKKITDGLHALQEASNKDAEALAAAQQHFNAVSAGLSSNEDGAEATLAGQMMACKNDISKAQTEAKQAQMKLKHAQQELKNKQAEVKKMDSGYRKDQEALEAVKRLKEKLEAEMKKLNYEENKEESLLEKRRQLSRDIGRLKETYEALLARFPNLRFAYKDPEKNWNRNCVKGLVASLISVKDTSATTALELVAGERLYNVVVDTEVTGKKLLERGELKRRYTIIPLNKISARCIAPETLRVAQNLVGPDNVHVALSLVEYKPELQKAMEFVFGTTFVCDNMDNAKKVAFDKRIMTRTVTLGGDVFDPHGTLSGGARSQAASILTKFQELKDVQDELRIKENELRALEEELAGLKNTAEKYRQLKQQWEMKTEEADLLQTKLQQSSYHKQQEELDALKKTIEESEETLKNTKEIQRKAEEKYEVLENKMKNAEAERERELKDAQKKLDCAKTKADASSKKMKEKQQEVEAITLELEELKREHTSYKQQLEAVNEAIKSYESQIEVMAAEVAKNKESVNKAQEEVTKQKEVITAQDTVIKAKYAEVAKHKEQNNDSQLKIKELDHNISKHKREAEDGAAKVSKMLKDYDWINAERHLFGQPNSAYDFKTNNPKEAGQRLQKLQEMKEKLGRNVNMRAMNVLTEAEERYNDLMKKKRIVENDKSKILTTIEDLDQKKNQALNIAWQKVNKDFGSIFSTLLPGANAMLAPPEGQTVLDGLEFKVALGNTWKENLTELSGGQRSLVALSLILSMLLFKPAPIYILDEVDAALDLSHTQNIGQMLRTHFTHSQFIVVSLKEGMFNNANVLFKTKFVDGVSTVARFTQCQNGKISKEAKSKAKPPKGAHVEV

In the case of `CC(=O)c1cnc2ccc(-c3cc(Cl)c(O)c(Cl)c3)nc2c1N[C@H]1CC[C@H](CN(C)C)CC1`, the Kd in assay [1], in assay [2], in assay [3], in assay [4], in assay [6] and in assay [7] was > 30 µM (inactive) each time. Moreover, the Kd in assay [8] was > 30 µM (inactive). For the same molecule, the negative-log Kd (pKd) in assay [5] is 8.52.
On to `COCc1c(-c2ccc(NC(=O)Nc3cc(C(F)(F)F)ccc3F)c(F)c2)c2c(N)ncnn2c1CN1CCOCC1`, for which the Kd in assay [1], in assay [2], in assay [3], in assay [4], in assay [5] and in assay [6] was > 30 µM (inactive) in each case. Besides, the Kd in assay [7] and in assay [8] was > 30 µM (inactive) each time.
Turning to `CNC(=O)c1ccccc1Sc1ccc2c(/C=C/c3ccccn3)n[nH]c2c1` [AXITINIB], the Kd in assay [4], in assay [6] and in assay [8] was > 30 µM (inactive) throughout.
Take `COCC(=O)NC/C=C/c1ccc2ncnc(Nc3ccc(Oc4ccc(C)nc4)c(C)c3)c2c1` [CP-724714]: the Kd in assay [1], in assay [2], in assay [3], in assay [4], in assay [5] and in assay [6] was > 30 µM (inactive) each time. Moreover, the Kd in assay [7] and in assay [8] was > 30 µM (inactive) each time.
For `CC(C)(C)c1nc(-c2cccc(NS(=O)(=O)c3c(F)cccc3F)c2F)c(-c2ccnc(N)n2)s1` [DABRAFENIB], the Kd in assay [2], in assay [4], in assay [5], in assay [6] and in assay [8] was > 30 µM (inactive) in each case.
`Cn1cc(C2=C(c3cn(C4CCN(Cc5ccccn5)CC4)c4ccccc34)C(=O)NC2=O)c2ccccc21` [ENZASTAURIN]: the Kd in assay [4], in assay [6] and in assay [8] was > 30 µM (inactive) each time.
For `C[C@@H](Oc1cc(-n2cnc3ccc(CN4CCN(C)CC4)cc32)sc1C(N)=O)c1ccccc1C(F)(F)F` [GSK-461364], the Kd in assay [4], in assay [6] and in assay [8] was > 30 µM (inactive) throughout.
Take `CNC(=O)c1cccc2cc(Oc3ccnc4cc(OCC5(N)CC5)c(OC)cc34)ccc12` [LUCITANIB]: the Kd in assay [1], in assay [2], in assay [3], in assay [4], in assay [5] and in assay [6] was > 30 µM (inactive) throughout. Besides, the Kd in assay [7] and in assay [8] was > 30 µM (inactive) each time.
Turning to `NC1(c2ccc(-c3nc4ccn5c(=O)[nH]nc5c4cc3-c3ccccc3)cc2)CCC1` [MK-2206], the Kd in assay [2], in assay [3], in assay [4], in assay [5], in assay [6] and in assay [7] was > 30 µM (inactive) each time. For the same molecule, the Kd in assay [8] is > 30 µM (inactive).
With `COc1ncc(-c2ccc3nccc(-c4ccnnc4)c3c2)cc1NS(=O)(=O)c1ccc(F)cc1F` [OMIPALISIB], the Kd in assay [1] was > 30 µM (inactive); in assay [2], > 30 µM (inactive); in assay [3], > 30 µM (inactive); in assay [4], > 30 µM (inactive); in assay [5], 1.37 µM (active); in assay [6], > 30 µM (inactive). Also, the Kd in assay [7] and in assay [8] was > 30 µM (inactive) each time.
On to `NC(=O)c1c(OCc2c(F)cc(Br)cc2F)nsc1NC(=O)NCCCCN1CCCC1` [OSI-632], for which the Kd in assay [2], in assay [3], in assay [4], in assay [6] and in assay [8] was > 30 µM (inactive) throughout.
Take `Cc1cnc(NC(=O)Nc2cc(Br)c(C)cc2OC[C@@H]2CNCCO2)cn1` [RABUSERTIB]: the Kd in assay [1], in assay [2], in assay [3], in assay [4], in assay [5] and in assay [6] was > 30 µM (inactive) each time. Also, the Kd in assay [7] and in assay [8] was > 30 µM (inactive) in each case.
For `CNC(=O)c1cc(Oc2ccc(NC(=O)Nc3cc(C(C)(C)C)nn3-c3ccc4ncccc4c3)c(F)c2)ccn1` [REBASTINIB], the Kd in assay [1], in assay [2], in assay [3], in assay [4], in assay [5] and in assay [6] was > 30 µM (inactive) throughout. The Kd in assay [7] and in assay [8] was > 30 µM (inactive) throughout.
As to `O=C(NOCCO)c1cc(CN2OCCCC2=O)c(F)c(F)c1Nc1ccc(I)cc1F` [RO-4987655], the Kd in assay [4], in assay [6] and in assay [8] was > 30 µM (inactive) throughout.
Take `N#CC[C@H](C1CCCC1)n1cc(-c2ncnc3[nH]ccc23)cn1` [RUXOLITINIB]: the Kd in assay [4], in assay [6] and in assay [8] was > 30 µM (inactive) in each case.
For `CCS(=O)(=O)c1cccc(-c2cc(C(=O)NC3CCN(C)CC3)c(C)c3[nH]c4ncc(C)cc4c23)c1` [TAK-901], the Kd in assay [1], in assay [3], in assay [4], in assay [5], in assay [6] and in assay [7] was > 30 µM (inactive) in each case. Also, the Kd in assay [8] was > 30 µM (inactive).
